Data taken from patent US11077111B2, “Use of fused heteroaromatic pyrrolidones for treatment and prevention of diseases in animals” (Bayer Animal Health GmbH, priority 2017, dated 2021).

How the values were obtained:
IRAK4 = IRAK4 (Canis lupus familiaris, UniProt A0A8I3S726); assay: Radiometric protein kinase assay, dog IRAK4; type: biochemical, Dog (Canis lupus familiaris); details: 10 μM ATP
Method: (§1) A radiometric protein kinase assay was used for measuring the kinase activity of the Dog (Canis lupus familiaris) IRAK4, JAK1, JAK2, SYK kinases. All kinase assays were performed in 96-well FlashPlates in a 50 μl reaction volume. The reaction cocktail was pipetted in four steps in the following order: • 20 μl of assay buffer (standard buffer) • […] of test compound (in 10% DMSO) • 20 μl enzyme/substrate mix • […] (in H2O) The reaction cocktails were incubated at 30° C. for 60 minutes. The reaction was stopped with 50 μl of 2% (v/v) H3PO4, plates were aspirated and washed two times with 200 μl 0.9% (w/v) NaCl. Incorporation of 33Pi was determined with a microplate scintillation counter.
(§2) IC50 calculation: the residual activity (in %) for each well of a particular plate was calculated by using the following formula: Res. Activity (%)=100×[(cpm of compound−low control)/(high control−low control)]
(§3) The residual activities for each concentration and the compound IC50 values were calculated using Quattro Workflow V3.1.1 (Quattro Research GmbH, Munich, Germany; www.quattro-research.com). The fitting model for the IC50 determinations was “Sigmoidal response (variable slope)” with parameters “top” fixed at 100% and “bottom” at 0%. The fitting method used was a least-squares fit. […]

JAK1 = JAK1 (Canis lupus familiaris, UniProt A0A8I3RS40); assay: Radiometric protein kinase assay, dog JAK1; type: biochemical, Dog (Canis lupus familiaris); details: 3 μM ATP
Method: as §1, §2, §3

JAK2 = JAK2 (Canis lupus familiaris, UniProt A0A8C0QV87); assay: Radiometric protein kinase assay, dog JAK2; type: biochemical, Dog (Canis lupus familiaris); details: 0.3 μM ATP
Method: as §1, §2, §3

SYK = SYK (Canis lupus familiaris, UniProt A0A8I3P3G0); assay: Radiometric protein kinase assay, dog SYK; type: biochemical, Dog (Canis lupus familiaris); details: 1 μM ATP
Method: A radiometric protein kinase assay was used for measuring the kinase activity of the Dog (Canis lupus familiaris) IRAK4, JAK1, JAK2, SYK kinases. All kinase assays were performed in 96-well FlashPlates in a 50 μl reaction volume. […] The reaction was stopped with 50 μl of 2% (v/v) H3PO4, plates were aspirated and washed two times with 200 μl 0.9% (w/v) NaCl. Incorporation of 33Pi was determined with a microplate scintillation counter. IC50 calculation: the residual activity (in %) for each well of a particular plate was calculated by using the following formula: Res. Activity (%)=100×[(cpm of compound−low control)/(high control−low control)] […] The fitting method used was a least-squares fit. Materials: The dog (Canis lupus familiaris) protein kinases IRAK4, JAK1, JAK2 and SYK had been recombinantly expressed in Sf9 insect cells and purified by affinity chromatography.

[1] = test system: house dust mites (HDM)-sensitized Beagle dogs; assay: In vivo model of house dust mite induced canine allergic dermatitis; details: for reduction rates of edema / reduction rates of erythema: range over time points
Method: Therein, HDM-sensitization consisted of a series of subcutaneous injections of HDM antigen (10 μg, Greer Laboratories, Lenoir, N.C., USA) and Alhydrogel® (0.2 mL, InvivoGen, San Diego, Calif. 921221, USA) as adjuvant in time intervals of approximately two weeks. The sensitization process was monitored and confirmed by intradermal skin testing. […] The control group was not treated while the group treated with the compound according to formula (IIIa) supra was orally treated with gelatin capsules containing the compound according to formula (IIIa) supra and Ac-Di-Sol; the group receiving Apoquel®, received the commercially available tablets. […] Plasma samples were analyzed to determine exposure to the compound in relationship to the clinical evaluations. […] This is illustrated by Tables 1 and 2, and by FIGS. 1 and 2.

[2] = 0.8 mg/kg BID oral, 0.5 h post-challenge
[3] = 0.8 mg/kg BID oral, 1 h post-challenge
[4] = 0.8 mg/kg BID oral, 4 h post-challenge
[5] = 0.8 mg/kg BID oral, 6 h post-challenge
[6] = 0.8 mg/kg BID oral, 24 h post-challenge
[7] = 0.8 mg/kg BID oral, 48 h post-challenge
[8] = 2 mg/kg BID oral, 0.5 h post-challenge
[9] = 2 mg/kg BID oral, 1 h post-challenge
[10] = 2 mg/kg BID oral, 4 h post-challenge
[11] = 2 mg/kg BID oral, 6 h post-challenge
[12] = 2 mg/kg BID oral, 24 h post-challenge
[13] = 2 mg/kg BID oral, 48 h post-challenge

Sequence of JAK1 (A0A8I3RS40 1-1159): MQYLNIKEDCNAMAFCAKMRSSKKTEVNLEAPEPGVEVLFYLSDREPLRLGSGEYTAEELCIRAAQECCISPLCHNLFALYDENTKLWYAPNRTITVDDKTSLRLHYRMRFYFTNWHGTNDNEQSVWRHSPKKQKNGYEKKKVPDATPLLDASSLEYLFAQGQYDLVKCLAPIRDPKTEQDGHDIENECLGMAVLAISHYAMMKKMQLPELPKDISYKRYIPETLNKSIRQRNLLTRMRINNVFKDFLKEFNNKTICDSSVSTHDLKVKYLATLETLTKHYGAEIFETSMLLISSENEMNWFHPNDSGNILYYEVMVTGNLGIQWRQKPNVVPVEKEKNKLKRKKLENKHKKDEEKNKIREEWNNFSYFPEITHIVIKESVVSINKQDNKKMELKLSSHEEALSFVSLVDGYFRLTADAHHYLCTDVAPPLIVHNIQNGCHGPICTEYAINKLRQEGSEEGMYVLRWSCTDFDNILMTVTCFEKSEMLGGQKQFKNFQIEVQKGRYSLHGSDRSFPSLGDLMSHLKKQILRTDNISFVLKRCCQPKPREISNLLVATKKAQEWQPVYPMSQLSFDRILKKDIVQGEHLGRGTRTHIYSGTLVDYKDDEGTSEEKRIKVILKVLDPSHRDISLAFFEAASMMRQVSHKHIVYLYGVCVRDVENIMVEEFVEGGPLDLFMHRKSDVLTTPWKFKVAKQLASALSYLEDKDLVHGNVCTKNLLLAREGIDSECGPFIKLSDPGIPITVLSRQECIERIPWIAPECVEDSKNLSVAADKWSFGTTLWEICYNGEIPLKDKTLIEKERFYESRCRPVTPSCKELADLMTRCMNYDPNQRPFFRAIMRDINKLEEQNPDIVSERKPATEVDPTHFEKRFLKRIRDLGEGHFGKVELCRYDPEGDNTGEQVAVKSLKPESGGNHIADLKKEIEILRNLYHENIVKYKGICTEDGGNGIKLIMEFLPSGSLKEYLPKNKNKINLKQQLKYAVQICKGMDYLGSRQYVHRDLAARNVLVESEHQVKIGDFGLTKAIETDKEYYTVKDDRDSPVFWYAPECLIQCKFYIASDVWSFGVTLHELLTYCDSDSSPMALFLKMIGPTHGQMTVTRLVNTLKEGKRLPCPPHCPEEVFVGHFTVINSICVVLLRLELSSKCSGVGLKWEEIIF
Sequence of SYK (A0A8I3P3G0 1-633): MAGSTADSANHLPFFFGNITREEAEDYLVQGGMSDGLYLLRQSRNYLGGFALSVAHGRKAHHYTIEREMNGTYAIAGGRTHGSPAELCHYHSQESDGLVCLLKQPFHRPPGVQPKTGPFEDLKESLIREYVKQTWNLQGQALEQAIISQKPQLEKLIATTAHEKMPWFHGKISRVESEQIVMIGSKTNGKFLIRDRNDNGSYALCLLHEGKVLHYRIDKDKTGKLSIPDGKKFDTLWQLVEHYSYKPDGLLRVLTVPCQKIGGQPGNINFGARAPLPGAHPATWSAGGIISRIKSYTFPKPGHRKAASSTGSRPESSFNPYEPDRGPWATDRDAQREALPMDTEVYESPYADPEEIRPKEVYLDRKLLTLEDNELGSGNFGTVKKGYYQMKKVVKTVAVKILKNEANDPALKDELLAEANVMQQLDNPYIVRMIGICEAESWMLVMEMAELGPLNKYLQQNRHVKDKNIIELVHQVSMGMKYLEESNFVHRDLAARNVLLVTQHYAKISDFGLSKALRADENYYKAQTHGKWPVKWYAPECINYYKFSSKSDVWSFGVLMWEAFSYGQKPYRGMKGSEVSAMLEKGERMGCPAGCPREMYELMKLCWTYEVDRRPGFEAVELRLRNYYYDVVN
Sequence of JAK2 (A0A8C0QV87 1-1132): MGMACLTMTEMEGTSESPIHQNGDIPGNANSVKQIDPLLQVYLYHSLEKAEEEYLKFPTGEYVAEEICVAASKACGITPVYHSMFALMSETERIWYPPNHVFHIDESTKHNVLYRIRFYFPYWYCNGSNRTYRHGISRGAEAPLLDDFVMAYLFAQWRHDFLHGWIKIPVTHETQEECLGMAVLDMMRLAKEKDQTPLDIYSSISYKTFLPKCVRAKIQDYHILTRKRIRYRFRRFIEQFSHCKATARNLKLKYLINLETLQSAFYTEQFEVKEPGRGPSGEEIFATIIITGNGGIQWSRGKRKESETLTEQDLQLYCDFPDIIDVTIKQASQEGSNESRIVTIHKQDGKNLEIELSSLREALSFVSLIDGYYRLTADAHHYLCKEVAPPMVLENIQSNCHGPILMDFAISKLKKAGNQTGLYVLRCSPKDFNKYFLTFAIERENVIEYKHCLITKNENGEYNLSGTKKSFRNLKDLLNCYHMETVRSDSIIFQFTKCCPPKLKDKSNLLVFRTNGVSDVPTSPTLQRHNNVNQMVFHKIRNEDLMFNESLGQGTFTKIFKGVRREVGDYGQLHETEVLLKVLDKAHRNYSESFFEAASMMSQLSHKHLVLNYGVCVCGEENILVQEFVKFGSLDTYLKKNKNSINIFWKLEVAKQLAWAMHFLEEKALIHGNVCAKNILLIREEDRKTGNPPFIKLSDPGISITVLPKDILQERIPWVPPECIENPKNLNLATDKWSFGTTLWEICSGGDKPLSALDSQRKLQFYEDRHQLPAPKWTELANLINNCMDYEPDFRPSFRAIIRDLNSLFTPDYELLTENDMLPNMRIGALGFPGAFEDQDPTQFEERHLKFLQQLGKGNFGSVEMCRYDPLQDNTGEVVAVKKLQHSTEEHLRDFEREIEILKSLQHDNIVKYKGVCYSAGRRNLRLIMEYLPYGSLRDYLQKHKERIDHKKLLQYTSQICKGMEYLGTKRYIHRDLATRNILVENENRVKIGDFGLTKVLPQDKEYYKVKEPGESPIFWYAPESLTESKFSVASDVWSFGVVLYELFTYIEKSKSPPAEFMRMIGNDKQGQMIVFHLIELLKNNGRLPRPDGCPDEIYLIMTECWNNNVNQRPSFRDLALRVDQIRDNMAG
Sequence of IRAK4 (A0A8I3S726 1-460): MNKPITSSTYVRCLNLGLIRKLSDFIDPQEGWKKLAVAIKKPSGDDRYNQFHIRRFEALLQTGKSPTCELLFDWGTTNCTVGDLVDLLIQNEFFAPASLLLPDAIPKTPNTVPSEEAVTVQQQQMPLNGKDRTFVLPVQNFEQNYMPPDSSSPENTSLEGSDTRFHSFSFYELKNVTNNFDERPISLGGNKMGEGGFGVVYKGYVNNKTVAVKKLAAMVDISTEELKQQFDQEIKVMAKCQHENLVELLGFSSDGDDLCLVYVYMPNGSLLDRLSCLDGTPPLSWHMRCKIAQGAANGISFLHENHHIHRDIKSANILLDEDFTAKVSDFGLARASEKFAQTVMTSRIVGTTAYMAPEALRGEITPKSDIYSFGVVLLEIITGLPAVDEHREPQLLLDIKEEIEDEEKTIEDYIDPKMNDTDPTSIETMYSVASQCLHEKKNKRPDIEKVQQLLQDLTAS

Q: `Cn1cc(-c2nc(N[C@@H]3CCCC[C@@H]3N)c(Cl)c3c2C(=O)NC3)cn1` [IVa, 6-((1R,2S)-2-Aminocyclohexylamino)-7-chloro-4-(1-methyl-1H-pyrazol-4-yl)-1H-pyrrolo[3,4-c]pyridin-3(2H)-one] was tested. Which IC50 (IRAK4) did it give?
A: 10.2 nM

Q: And the IC50 (JAK1)?
A: 466 nM

Q: And the IC50 (JAK2)?
A: 624 nM

Q: And the IC50 (SYK)?
A: 323 nM

Q: For `Cn1cc(-c2nc(N[C@@H]3CCCC[C@@H]3N)c(F)c3c2C(=O)NC3)cn1` [IIIa, 6-((1R,2S)-2-aminocyclohexylamino)-7-fluoro-4-(1-methyl-1H-pyrazol-4-yl)-1H-pyrrolo[3,4-c]pyridine-3(2H)-one], which “Percentage of reduction of Edema (compared to untreated control, median values)” value (shortened to “Percentage of reduction of Edema”) [1, 2] is on record?
A: 41%

Q: What about the “Percentage of reduction of Erythema (compared to untreated control, median values)” value (“Percentage of reduction of Erythema” below) [1, 2] of the same molecule?
A: 33%

Q: And the “Percentage of reduction of Edema” value [1, 3]?
A: 52%

Q: What about the “Percentage of reduction of Erythema” value [1, 3] of the same molecule?
A: 63%

Q: And the “Percentage of reduction of Edema” value [1, 4]?
A: 39%

Q: What about the “Percentage of reduction of Erythema” value [1, 4] of the same molecule?
A: 30%

Q: And the “Percentage of reduction of Edema” value [1, 5]?
A: 49%

Q: What about the “Percentage of reduction of Erythema” value [1, 5] of the same molecule?
A: 28%

Q: What about the “Percentage of reduction of Edema” value [1, 6] of the same molecule?
A: 41%

Q: What about the “Percentage of reduction of Erythema” value [1, 6] of the same molecule?
A: 43%

Q: And the “Percentage of reduction of Edema” value [1, 7]?
A: 100%

Q: And the “Percentage of reduction of Erythema” value [1, 7]?
A: 100%

Q: And the “reduction rates of edema” value ([1]; 0.8 mg/kg BID)?
A: 39-100%

Q: What about the “reduction rates of erythema” value ([1]; 0.8 mg/kg BID) of the same molecule?
A: 28-100%

Q: And the “comparative reduction of edema in the CAD model (% compared the control group), up to” value ([1]; 2 mg/kg BID)?
A: > 75%

Q: And the “comparative reduction of erythema in the CAD model (% compared the control group), up to” value ([1]; 2 mg/kg BID)?
A: > 75%

Q: What about the “Percentage of reduction of Edema” value [1, 8] of the same molecule?
A: 76%

Q: And the “Percentage of reduction of Erythema” value [1, 8]?
A: 74%

Q: And the “Percentage of reduction of Edema” value [1, 9]?
A: 81%

Q: What about the “Percentage of reduction of Erythema” value [1, 9] of the same molecule?
A: 76%

Q: And the “Percentage of reduction of Edema” value [1, 10]?
A: 75%

Q: And the “Percentage of reduction of Erythema” value [1, 10]?
A: 75%

Q: What about the “Percentage of reduction of Edema” value [1, 11] of the same molecule?
A: 79%

Q: What about the “Percentage of reduction of Erythema” value [1, 11] of the same molecule?
A: 76%

Q: And the “Percentage of reduction of Edema” value [1, 12]?
A: 75%

Q: And the “Percentage of reduction of Erythema” value [1, 12]?
A: 69%

Q: And the “Percentage of reduction of Edema” value [1, 13]?
A: 100%

Q: And the “Percentage of reduction of Erythema” value [1, 13]?
A: 100%

Q: What about the “reduction rates of edema” value ([1]; 2 mg/kg BID) of the same molecule?
A: 75-100%

Q: What about the “reduction rates of erythema” value ([1]; 2 mg/kg BID) of the same molecule?
A: 69-100%

Q: What about the “effect on clinical signs of CAD (edema and erythema)” value ([1]; House Dust Mite model, oral BID) of the same molecule?
A: significantly reduced
